Measured values reported in patent US5925369A, “Bis alkanoyl esters of carnitine having bactericidal, fungicidal and antiprotozoal activity” (priority 1996, dated 1999).

Tests used:
Trichomonas vaginalis = assay: MIC on protozoa (Trichomonas vaginalis); format: cell-based; conditions: Metronidazole resistant strains T. vaginalis SS-20 and SS-22 (25 and 50)
Description: Protozoal suspensions are prepared from 24-hour cultures grown at 37° C. and 5% CO2 in DIAMOND T.Y.M. broth supplemented with 10% heat-inactivated FCS.
The suspensions are adjusted, in the same medium, to a final concentration of 2.5×10^5 cells/ml in each well of a 96-well microtiter plate. Substance dilutions (0.3 log) are added to the suspensions in order to have a range of final concentrations from 0.19 to 100 mcg/ml. Microtiters are then incubated at 37° C. and 5% CO2 for 24 hours. MIC is referred to as the minimal concentration inhibiting either protozoa or flagella or undulating membrane motility (Cf. JULIANO C., MARTINOTTI M. G., […] P., In vitro effect of microtubule inhibitors on T. vaginalis, Microbiologia, 8:31-42, 1985. LOVGREN T. and SALMELA I., Invitro sensitivity of T. vaginalis and C. albicans to chemotherapeutic agents, Acta Path. Microbiol. Scand.. 86:155-158, 1978).

[1] = test system: T. mentagrophytes IDI D1049; assay: Antifungal activity in experimental Tinea pedis in the guinea-pig paw; format: in vivo, Hartley guinea-pig; conditions: for A (clinical sign score) / D (clinical sign score) / E (clinical sign score): scale 0-3
From the text: Twelve male Hartley guinea-pig (C. RIVER), weighing 350-400 gr, have been utilized (3 animals per experimental group).
One clinical isolate (Tricophyton mentagrophytes IDI D 1049, from Immacolata Dermatological Institute of Rome) was utilized.
Microaleuriospores were first harvested by scraping from a 7-day fungal culture grown in Potato dextrose agar, and then resuspended in Sabouraud broth with 0.5% Tween 80.
After washing, the spores were standardized in sterile saline to yield a final concentration of 1.0×10^8 spores/ml.
Each group included 3 animals, and only the left hind paw was inoculated. For the 2 control groups, 3 animals in total were used, as both hind paws of each animal were inoculated.
Filter paper discs (12-mm diameter and 0.3-mm thickness) were covered with aluminum foil in the lower part to prevent the inoculum spreading. This filter was then sticked to a 1×3-cm piece of biadesive plaster, which adhered to a gauze wrapped around the paw.
The filter paper disc was then wetted with 100 μl of the infective suspension, and subsequently fixed to the guinea-pig paw.
The animal paw was tied up with bandage and plaster, and then left in these conditions for 7 days.
Seven days after infection, the infected areas were uncovered and the type of lesion was graded according to an arbitrary scale, as follows:
These "clinical" signs were examined again on days +14, +21, and +31 (day of sacrifice of animals). Three days following the first observation of the type of lesion (day +10), treatments with the differrent formulations were started, and they went on for 20 days (once a day). Two days following the last treatment (day +31), animals were sacrificed and plantar areas of the paws were dissected into 10 parts for each paw.
These sections were plated onto Mycobiotic agar supplemented with Penicillin G and Streptomicin (100 mcg/ml). Volumes of 50 μl of both antibiotics were then added to the plantar sections to prevent any bacterial growth that might interfere with the growth of T. mentagrophytes in the samples under examination.
The data obtained were expressed as the number of microbiologically sterile cutaneous sections over the total examined sections.

[2] = 1.5%, 20 days once a day, day +31

SMILES | MIC of Metronidazole (Trichomonas vaginalis) | MIC (Trichomonas vaginalis; Trichomonas vaginalis, 24 h, read-out: MIC of Metronidazole) | eradication of infection ([1]; 1.5% Miconazole) | A (clinical sign score) ([1]; 1.5%, 7th day) | D (clinical sign score) ([1]; 1.5%, 7th day) | E (clinical sign score) ([1]; 1.5%, 7th day) | A (clinical sign score) ([1]; 1.5%, 14th day) | D (clinical sign score) ([1]; 1.5%, 14th day) | E (clinical sign score) ([1]; 1.5%, 14th day) | A (clinical sign score) ([1]; 1.5%, 21st day) | D (clinical sign score) ([1]; 1.5%, 21st day) | E (clinical sign score) ([1]; 1.5%, 21st day) | A (clinical sign score) ([1]; 1.5%, 31st day) | D (clinical sign score) ([1]; 1.5%, 31st day) | E (clinical sign score) ([1]; 1.5%, 31st day) | sterile samples (%) [1, 2] | sterile samples (n = 30), number over total [1, 2]
Cc1ncc([N+](=O)[O-])n1CCO [Metronidazole] | 50 µg/mL | 25 µg/mL | – | – | – | – | – | – | – | – | – | – | – | – | – | – | –
Clc1ccc(COC(Cn2ccnc2)c2ccc(Cl)cc2Cl)c(Cl)c1 (centres unmarked) [Miconazole, reference compound] | – | – | capable of eradicating infection from all treated samples | 0 | 0 | 0 | 0 | 0 | 0 | 0 | 0 | 0 | 0 | 0 | 0 | 100% | 30/30
